≈ marks a conversion by molar mass, not a printed value.
Settings: for solubility: 25 °C

Structure (SMILES)	logP	solubility [nM]
c1ccc2c(c1)Oc1ccccc1O2	4.3	
Clc1ccc2c(c1)Oc1c(Cl)c(Cl)c(Cl)c(Cl)c1O2	7.4	
Clc1cc2c(cc1Cl)Oc1cc(Cl)c(Cl)cc1O2	6.8	0.621 (≈ 0.2 ng/mL)
Clc1c(Cl)c(Cl)c2c(c1Cl)Oc1c(Cl)c(Cl)c(Cl)c(Cl)c1O2	8.2	
Clc1cc(Cl)c2c(c1Cl)Oc1ccccc1O2	6.35	
Clc1cccc2c1Oc1ccccc1O2	4.75	
Clc1cc2c(c(Cl)c1Cl)Oc1c(Cl)c(Cl)c(Cl)c(Cl)c1O2	8.2	
Clc1ccc2c(c1)Oc1ccc(Cl)cc1O2	5.75	
Clc1c(Cl)c(Cl)c2c(c1Cl)Oc1ccccc1O2	6.6	1.96 (≈ 0.63 ng/mL)
Clc1cc2c(cc1Cl)Oc1c(Cl)c(Cl)c(Cl)c(Cl)c1O2	7.8	
Clc1ccc2c(c1)Oc1ccccc1O2	5	
